Values quoted from earlier work as cited in patent publication US20110306626A1, “IMIDAZOLINONE DERIVATIVES AS CGRP RECEPTOR ANTAGONISTS” (priority 2008, published 2011).
Ends that are not written are not given here.

Assays:
[1] = system: acute attacks of migraine; conditions: clinical trials (Olesen et al. 2004)
[2] = system: headache induced by CGRP infusion; conditions: control group (Petersen et al. 2005)
facial blood flow [3] = conditions: marmoset, electrical stimulation of the trigeminal ganglion (Doods et al. 2000)
middle meningeal artery = conditions: rats, electrical stimulation of the dura mater, prior administration (Williamson et al. 1997)
facial blood flow [4] = conditions: rat, trigeminal ganglion stimulation (Escott et al. 1995)

Compound | treatment of acute attacks of migraine [1] | prevention of headache induced by CGRP infusion [2] | increase in facial blood flow (facial blood flow [3]) | increase of the diameter of the middle meningeal artery (middle meningeal artery) | increase of facial blood flow (facial blood flow [4])
NCCCC[C@H](NC(=O)[C@@H](Cc1cc(Br)c(O)c(Br)c1)NC(=O)N1CCC(N2Cc3ccccc3NC2=O)CC1)C(=O)N1CCN(c2ccncc2)CC1 [BIBN4096BS] | effective in treating acute attacks of migraine | able to prevent headache induced by CGRP infusion | could be blocked | – | –
CGRP(8-37): a peptide CGRP antagonist; fragment of CGRP that lacks seven N-terminal amino acid residues (VTHRLAGLLSRSGGVVKNNFVPTNVGSKAF; ends and bridges not checked; UniProt P06881 90-119, looked up, fragment) | – | – | – | blocked | inhibited
